{
  "source": "patent US20240075182A1",
  "about": "“ENHANCED DERMAL PATCH FOR TREATING MENSTRUAL PAIN” (REMY BIOSCIENCES, priority 2021, published 2024)",
  "key": {"[1]": {"conditions": "cited from earlier work"}, "[2]": {"conditions": "as measured at room temperature; cited from earlier work"}, "[3]": {"assay": "Saturation concentration (solubility) of CBD in PIB adhesive, CBD added until turbidity", "type": "physicochemical", "text": "Regarding peel strength of adhesives, the inventor used judgment and estimation for preparing the patch with 26% of tackifying resin. Escorez 5400 has been used in many adhesives but not in PIB. […] The inventor estimated the peel strength of the formulation with tackifier and without tackifier, by peeling them both from the inventor's own arm skin. To obtain saturation concentration of CBD in the PIB adhesive with 26% of tackifying resin Escorez 5400 the inventor needed to add more CBD to reach turbidity. […] It was the same as the flux from PIB saturated with CBD without tackifier.\nThis is expected to result in thus greater flux of CBD to a patient, where the dermal patch is in contact with the skin of a patient."}, "[4]": {"assay": "Transdermal flux / transdermal delivery from PIB adhesive patch (Franz diffusion cell)", "from_the_text": "The inventor used a Franz cell for assessing release kinetics, as described below. For testing release kinetics from transdermal monolithic patches, where a semi-solid adhesive matrix is used, the Franz cell has the following components, from top to bottom: (1) Stopper used to seal top of donor compartment; (2) Donor compartment; (3) Patch situated at very bottom of donor compartment, with adhesive side of patch attached to human cadaver skin; (4) Human cadaver skin located immediately under the patch; (5) Receiving compartment, located immediately below the skin. Receiving compartment is filled with ethanol/water solution; (6) Magnetic stirrer located at bottom of receiving compartment.\nAfter receiving the donor human skin, the inventor prepared the skin for testing in a Franz cell by thawing the skin to room temperature, washing in distilled water and cutting in round pieces to fit the diameter of the Franz cell opening. Before placing the patch on the human skin, the inventor dried the skin with a paper tissue. The skin with the attached patch was placed between the Upper Donor Chamber and the Lower Receiving Chamber and clamped tightly. […] The test lasts typically 24 hrs and aliquots of 150 L were withdrawn from the receiving chamber after different periods of time and analyzed via HPLC. […]"}},
  "data": [
    {"smiles": "COc1cc(CNC(=O)CCCC/C=C/C(C)C)ccc1O", "note": "[Capsaicin, trans-8-methyl-N-vanillyl-6-nonenamide]", "values": [
      {"measurement": "water solubility", "setting": "[1]", "value": "not water-soluble"}
    ]},
    {"smiles": "OB(O)O", "note": "[boric acid]", "values": [
      {"measurement": "pKa", "setting": "[2]", "value": 9.2}
    ]},
    {"smiles": "C=C(C)[C@@H]1CCC(C)=C[C@H]1c1c(O)cc(CCCCC)cc1O", "note": "[CBD, cannabidiol]", "values": [
      {"measurement": "concentration of the saturation of CBD in PIB adhesive", "setting": "[3]; PIB adhesive with 26% of tackifying resin Escorez 5400, CBD added to reach turbidity", "value": "about 18%"},
      {"measurement": "solubility of CBD in PIB adhesive, effect of Escorez 5400 tackifier", "setting": "[3]; with Escorez 5400 tackifier versus without", "value": "increased"},
      {"measurement": "transdermal flux of CBD", "setting": "[4]; PIB adhesive with 26% Escorez 5400 saturated with CBD, versus PIB saturated with CBD without tackifier", "value": "did not increase"}
    ]},
    {"smiles": "O=S(=O)(O)CCN1CCN(CCS(=O)(=O)O)CC1", "note": "[PIPES]", "values": [
      {"measurement": "pKa", "setting": "[2]", "value": 6.8}
    ]},
    {"smiles": "O=S(=O)(O)CCNC1CCCCC1", "note": "[CHES]", "values": [
      {"measurement": "pKa", "setting": "[2]", "value": 9.5}
    ]},
    {"smiles": "CCCCCCCC/C=C\\CCCCCCCC(=O)O", "note": "[oleic acid]", "values": [
      {"measurement": "transdermal delivery from PIB adhesive with enhancer", "setting": "[4]; enhancer at 3% in PIB adhesive, versus PIB without enhancer", "value": "double"}
    ]}
  ]
}
